Key:
[1] = system: focal seizures in hippocampal kindled rats; experiment: Hippocampal kindling model; type: in vivo, Sprague-Dawley rats; settings: hippocampal kindling model; not as effective as 4,4′-thiodianiline
From the text: Hippocampal Kindling Model
The hippocampal kindling model is an experimental seizure model used to simulate focal seizures. This model evaluates the capacity of a compound to affect both the expression and acquisition of focal seizures. In addition, kindled seizures provide a methodology for studying complex brain networks that may contribute to the spread and generalizations of seizures from a focus. The hippocampal kindling model has the advantage of being one of the only kindling models that can evaluate the temporal effects of an agent in a single animal. For this assessment, bipolar electrodes are surgically implanted in the ventral hippocampus of adult male Sprague-Dawley rats (275-300 g) under ketamine-xylazine anesthesia. Following a one-week recovery period, stage five behavioral seizures are induced by stimulating the rat 12 times per day with 50 Hz, 10 s train of 1 ms biphasic 200 μA pulses delivered every 30 min for six hours on alternating days. After five stimulus days, the animal has had 60 stimulations. A drug free control period with supramaximal stimulations is used to verify the stability of a stage five generalized seizure before the anticonvulsant activity of a drug is measured.
This screen is used to measure the capacity of the drug to prevent the expression of focal seizures. […] The animal is exposed to an initial stimulation of 20 μA; the stimulation is increased in 10 μA increments every one-two minutes until an afterdischarge is recorded. After the stability of the stage five seizure is established, the drug candidate is administered to the rats via intraperitoneal injection 15 minutes after the last control stimulation. Starting with the first dose, the anticonvulsant activity of the test agent is measured every thirty minutes for four hours. Following each stimulation, Racine seizure scores and afterdischarge durations are compared to control values to quantify the anti-convulsant activity of the agent. The Racine seizure scores vary from stage 1 to 5. The stages are characterized according to the following criteria: Stage 1—mouth and facial clonus, Stage 2—stage 1 and head nodding, Stage 3—stage 2 and forelimb clonus, Stage 4—stage 3 and rearing, Stage 5—stage 4 and repeated rearing and falling. Since a single animal is used, each rat serves as its own control.
4,4′-Thiodianiline was used in the rat hippocampal kindled rats to screen to measure its anticonvulsant potential. Doses of 12.5, 25, 50 and 100 mg/kg were evaluated at a minimum of seven time points (n=7 for each dose and each time point). […] After oral administration of the test compound stimulation, the Racine seizure scores and afterdischarge durations were measured and are shown below. The Racine seizure scores dropped from between a stage 4 and stage 5 seizure for control measurements to between a stage 1 and stage 2 seizure after treatment with 4,4′-thiodianiline.

6 Hz seizures = experiment: 6 Hz kindling model; type: in vivo, mice
Description: The 6 Hz kindling model is another experimental seizure model that effectively detects compounds with anti-seizure activity. This screen is used to evaluate the ability of a compound to prevent the acquisition of focal seizures; in particular, the capacity of a compound to prevent the development of seizures induced by a low-frequency (6 Hz), long duration (three seconds) stimulus in electrode […] is evaluated. Several of the most promising compounds were evaluated in this screen to further characterize their anti-seizure activity.
In the 6 Hz kindling test, mice are implanted with corneal electrodes. The test compound is administered (i.p.) to the animal at 0.25, 0.5, 1, 2, or 4 hours prior seizure induction. The seizure is initiated by delivering a current (32 mA at 6 Hz for three seconds) to the animal through the corneal electrodes. The resulting psychomotor seizure is usually characterized by a minimal clonic phase followed by stereotyped, automatistic behaviors. This response is analogous to the aura of human patients with partial seizures.

MES-induced seizure [2] = experiment: Maximal Electroshock Seizure (MES) test in rats, oral administration; type: in vivo; settings: for Percentage of rats in which the test compound prevented MES-induced seizure: 30 mg/kg oral
From the text: (§1) The Maximal Electroshock Seizure (MES) or Maximal Seizure Pattern Test
(§2) The MES is an experimental model for generalized tonic-clonic seizures that identifies compounds that prevent seizure spread. The MES model is highly reproducible and has a consistent endpoint. An advantage of this model is that the behavioral and electrographic seizures are consistent with those observed in humans.
(§3) In the MES test, the animal receives an electrical stimulus, 0.2 seconds in duration, via corneal electrodes primed with an electrolyte solution containing an anesthetic agent. The 0.2 second stimulation is generated with 150 mA in rats and 50 mA in mice at 60 Hz. […] In rats, the compound is administered orally, while mice receive the agent via intraperitoneal injection. The test endpoint, electrogenic seizure, is manifested as hindlimb tonic extension.
A full dose-response curve was also generated in rats to determine the ED50 value (n=8 at each time point). […] The ED50 of 4,4′-thiodianiline was evaluated in both rats and mice.

rats = experiment: Minimal neurotoxicity in rats, positional sense and gait and stance tests; type: in vivo; settings: 250 mg/kg
From the text: If the rat experiences neurological toxicity, it will not be able to quickly lift its leg quickly back to a normal position.
In the gait and stance test, neurotoxicity is indicated by a circular or zigzag gait after administration of the test compound. In addition, ataxia, abnormal spread of the legs, abnormal posture, tremor hyperactivity, lack of exploratory behavior, somnolence, stupor, or catalepsy can indicate neurotoxicity.

MES-induced seizure [3] = experiment: Maximal Electroshock Seizure (MES) test in mice, intraperitoneal administration; type: in vivo
From the text: as §1, §2, §3

mice = experiment: Minimal neurotoxicity in mice, rotorod test; settings: 100 mg/kg
Description: In mice, the test compound is administered at doses of 30, and 100 mg/kg prior to evaluation in the toxicity screens. The mice are tested at 0.5 hours and 4 hours after intraperitoneal administration of the test compound.
Toxicity in mice weighing between 18 and 25.5 g is assessed using the standardized rotorod test [9]. For each compound tested, a minimum of 18 animals are evaluated for neurotoxicity. Control mice can maintain their equilibrium for an extended period of time when they are placed on a 6-rpm rotation rod. Neurologically impaired animals cannot maintain equilibrium for one minute in each of three successive trials.

[4] = 30 mg/kg i.p., 0.5 h after administration
[5] = 100 mg/kg i.p., 0.5 h after administration
[6] = 100 mg/kg i.p., 4.0 h after administration

## Nc1ccc(Oc2ccc(N)cc2)cc1 [4,4′-diaminodiphenyl ether]
[1]
  expression of fully kindled seizures: had the capacity to block the expression of fully kindled seizures
6 Hz seizures; 30 mg/kg i.p., 0.25 h after administration
  Percentage of mice in which the test compound prevented seizure in the 6 Hz test: 0%
6 Hz seizures; [4]
  Percentage of mice in which the test compound prevented seizure in the 6 Hz test: 50%
6 Hz seizures; 30 mg/kg i.p., 1.0 h after administration
  Percentage of mice in which the test compound prevented seizure in the 6 Hz test: 25%
6 Hz seizures; 30 mg/kg i.p., 2.0 h after administration
  Percentage of mice in which the test compound prevented seizure in the 6 Hz test: 25%
6 Hz seizures; 100 mg/kg i.p., 0.25 h after administration
  Percentage of mice in which the test compound prevented seizure in the 6 Hz test: 100%
6 Hz seizures; [5]
  Percentage of mice in which the test compound prevented seizure in the 6 Hz test: 100%
6 Hz seizures; 100 mg/kg i.p., 1.0 h after administration
  Percentage of mice in which the test compound prevented seizure in the 6 Hz test: 100%
6 Hz seizures; 100 mg/kg i.p., 2.0 h after administration
  Percentage of mice in which the test compound prevented seizure in the 6 Hz test: 100%
6 Hz seizures; [6]
  Percentage of mice in which the test compound prevented seizure in the 6 Hz test: 0%
MES-induced seizure [2]; 0.25 h after administration
  Percentage of rats in which the test compound prevented MES-induced seizure: 100%
MES-induced seizure [2]; 0.5 h after administration
  Percentage of rats in which the test compound prevented MES-induced seizure: 100%
MES-induced seizure [2]; 1.0 h after administration
  Percentage of rats in which the test compound prevented MES-induced seizure: 75%
MES-induced seizure [2]; 2.0 h after administration
  Percentage of rats in which the test compound prevented MES-induced seizure: 75%
MES-induced seizure [2]; 4.0 h after administration
  Percentage of rats in which the test compound prevented MES-induced seizure: 100%
MES-induced seizure [2]; rat, oral administration, MES test
  Time to Peak Effect: 6 h
MES-induced seizure [2]; rat, oral administration, at the time of peak effect, n=8
  ED50 required to inhibit MES-induced seizure: 5.24 ± 4.67 mg/kg
rats
  toxicity: no significant toxicity
MES-induced seizure [3]; [4]
  Percentage of mice in which the test compound prevented MES-induced seizure: 0%
MES-induced seizure [3]; 30 mg/kg i.p., 4.0 h after administration
  Percentage of mice in which the test compound prevented MES-induced seizure: 0%
MES-induced seizure [3]; [5]
  Percentage of mice in which the test compound prevented MES-induced seizure: 100%
MES-induced seizure [3]; [6]
  Percentage of mice in which the test compound prevented MES-induced seizure: 100%
MES-induced seizure [3]; 300 mg/kg i.p., 0.5 h after administration
  Percentage of mice in which the test compound prevented MES-induced seizure: 100%
MES-induced seizure [3]; 300 mg/kg i.p., 4.0 h after administration
  Percentage of mice in which the test compound prevented MES-induced seizure: 100%
mice
  toxicity: no significant toxicity

— patent US7226949B2, “Compounds of use in the treatment of epilepsy, seizure, and electroconvulsive disorders” (University of Kentucky, priority 2002, dated 2007)
